row,SMILES,melting point [°C]
1,CC(=O)SC1(C(=O)O)CCCC1,120 to 122
2,NCCOc1cc(F)cc2c1OCCC2,68 to 70
3,COc1cc(C=CC(=O)CCCO)cc(OC)c1,74 to 77
4,CCN1CCc2cc(Nc3ncc(Cl)c(Nc4ccccc4C(=O)NC)n3)c(OC)cc2CC1,195 to 211
5,CC(=O)C(C#N)c1ccc2c(c1)Cc1cccnc1O2 (centres undefined),245 to 248
6,Cc1nccn1-c1nc(-c2ccc(Cl)cc2)c(CCCN2C(=O)CN(C)C2=O)o1,105 to 106
7,CCN1CC(=O)N(c2cc(F)ccc2C)C1=S,98 to 100
8,COC(C)(C)OCC(C)C1CCC2C3C=CC4=CC(=O)C5OC5C4(C)C3CCC12C (centres undefined),150 to 151
9,COc1cccc(-c2nc(Cl)nc(Nc3cccc([N+](=O)[O-])c3)n2)c1,155
10,CCOc1cc2c(cc1OC)C(c1ccc(C(=O)N(C(C)C)C(C)C)cc1)=N[C@@H]1CCOC[C@H]21,116 to 120
11,O=c1[nH]cc(-c2ccncn2)cc1Br,> 250
12,NC(=O)[C@H](O)[C@@H](O)[C@H](O)[C@H](O)CO,109 to 111
13,Cc1cc2ncc(Nc3ccc(Cl)c(Cl)c3)nc2cc1C,229
14,CC(=O)NC1Cc2cn(S(=O)(=O)c3c(C(C)C)cc(C(C)C)cc3C(C)C)c3cccc(c23)C1=O (centres undefined),159 to 162
15,CC(C)(CO)Nc1nc(-c2cccc(Br)c2)cs1,116 to 120
16,COC(=O)c1cc(-c2nn(C)c(SC)c2C)c(F)cc1Cl,82 to 83
17,CC(C)(C)OC(=O)NC[C@H]1CN(c2ccc3c(c2)CC(C(C)(C)C)N3)C(=O)O1 (some centres undefined),153 to 160

row,SMILES,melting point [°C]
1,CC(C)(C)C(=O)NNc1ccc([N+](=O)[O-])cc1Br,145
2,Nc1nnc(-c2ccccc2OC(F)(F)C(F)F)c(N)n1,158 to 160
3,CC(C)(C)c1ncc2cc(Cl)nc(Cl)n12,109 to 110
4,COc1cc(C(C)C)c2c(c1)S(=O)(=O)N(COc1cc(C(F)(F)F)nn1-c1ccc(Cl)cc1)C2=O,160 to 161
5,CN(C)Cc1cnc2n1-c1ccc(Cl)cc1C(c1ccccc1)=NC2,181 to 182
6,C=CCOC(=O)c1ccc(N=C(OC)c2ccc(OC)c(C34CC5CC(CC(C5)C3)C4)c2)cc1,85 to 87
7,COc1cc(C(=O)N(C(C)C)C2CCCCC2)ccc1Cn1c(CO)nc2cccnc21,124 to 126
8,C[C@@H](O)[C@H]1C(=O)N([Si](C)(C)C(C)(C)C)[C@@H]1[C@@H]1COC(C)(C)O1,80 to 90
9,CC(=O)NC[C@H]1CN(c2ccc(N3CCC(N)(C#N)CC3)c(F)c2)C(=O)O1,94 to 96
10,C=CCOc1ccc(C(=O)C=Cc2c(OC)cccc2OC)cc1,102 to 103
11,O=C1c2ccccc2S(=O)(=O)N1c1c(F)c(F)nc(F)c1F,164 to 165
12,Cc1[nH]c(=O)c2c(ccc3nc(Nc4c(Cl)cccc4Cl)n(C)c32)c1CCO,> 300
13,Cc1nc2[nH]c(=O)[nH]c2cc1-c1ccc(NC(=O)C(F)(F)F)cc1,> 300
14,Cc1cc(-c2ccc(C(F)(F)F)nc2)nc(-c2ccnc(-c3cccc(S(N)(=O)=O)c3)c2)n1,255
15,Nc1ccccc1S(=O)(=O)N1CC=CC1,104 to 105
16,Cn1c(C(F)(F)F)nn(-c2ccccc2[N+](=O)[O-])c1=O,83
17,CC#CCOc1ccc(S(=O)(=O)N[C@H]2CCCC[C@H]2C(=O)NO)cc1,140 to 145

# The remaining lines, values ahead:
row,melting point [°C],SMILES
1,172 to 175,O=C1N(Cc2ccc(Cl)cc2)c2ccccc2C1(O)c1cc(OCc2ccccc2)ccc1O (centres undefined)
2,85 to 88,CCCCCCCCCCCC/C(=C\C=C\C(=O)O)c1ccc(OC)cc1
3,167 to 168,O=C(O)CC1c2ccccc2C=Cc2ccccc21
4,172 to 174,CCCCNC(=O)c1ccc(N2CCN(c3ccncc3)CC2)cc1
5,171 to 176,CNCCn1nc2c3c(c(Cl)ccc31)C(=O)c1c(OCc3ccccc3)ccc(OCc3ccccc3)c1-2
6,115 to 120,CN(C)CCNC(=O)N1CCN(c2ccc([N+](=O)[O-])cc2)CC1
7,181 to 183,COC(=O)CCC(=O)c1ccc(NS(C)(=O)=O)cc1
8,138 to 140,CC(C)c1nc(C(c2ccccc2)c2ccccc2)cc(-c2ccc(F)cc2)c1CO
9,128 to 130,O=C1c2ccccc2-c2c1c1ccccc1c(=O)n2CCCCCCCCCCNS(=O)(=O)c1ccccc1
10,200,O=C(Nc1ccc(Cl)cc1)O[C@H]1COC(c2ccccc2)=N[C@@H]1c1ccccc1 (racemic)
11,88 to 89,CCOC(=O)COc1ccc(-c2noc3ccccc23)c(Cl)c1Cl
12,108 to 109,Cc1ccc(-c2nc(NC(=O)OCC[Si](C)(C)C)cs2)cc1
13,138 to 140,C=C(C)c1cccc2c(C(=O)O)cccc12
14,127 to 129,O=C(O)CCCNC(=O)[C@@H](Cc1ccccc1)C[C@H](Cc1ccccc1)C(=O)O (relative stereo)
15,88 to 90,Cc1ccc(C=COc2cccc3c2C(=O)c2ccccc2C3=O)cc1
16,81 to 84,OCc1cncn1-c1ccccc1
17,138 to 139,COC(=O)C1=C(CCc2ccccc2)NC(CC(=O)N2CCN(C)CC2)=C(C(=O)OC)C1c1c(Cl)cccc1Cl (centres undefined)
18,160 to 162,O=[N+]([O-])c1cccc(NN=C(c2ccc(O)cc2)c2ccc(O)cc2)c1

row,melting point [°C],SMILES
1,58 to 59,O=C(O)CCCN(C(=O)c1ccc(Cl)c(Cl)c1)c1ccc2c(c1)CCC2
2,251 to 253,CC(C)c1cccc(C(C)C)c1NC(=O)CN1CN(c2ccccc2)C2(CCCCC2)C1=O
3,78 to 81,Cc1ccccc1-c1cccc(F)c1C(=O)NCCCl
4,210 to 212,Oc1cccc(C=Cc2ccc3ccccc3n2)c1
5,96 to 103,CCOC(=O)c1c(N(C)C)c2cc(C)ccc2n(Cc2ccccc2)c1=O
6,60.5 to 61.5,CNC(=O)C(CC(=O)N(CC(=O)NO)CC(C)C)CC(C)C (centres undefined)
7,92 to 94,Fc1ccc(-c2cncc(CNCCOc3cccc4ccccc34)c2)cc1
8,108 to 110,CN(C)CCCC(C(N)=O)c1ccccc1-c1ccccc1 (centres undefined)
9,134 to 137,CC(=O)OC(=O)c1ccc(N2C(=O)NC(N(CC(C)C)C(C)=O)NC2=O)cc1
10,117 to 119,CC(C)(C)OC(=O)CC1(CC(=O)O)CCC(=O)Nc2ccccc21 (centres undefined)
11,198 to 200,O=C(Nc1cccc(C(F)(F)F)c1)c1ccccc1C(c1ccc(O)cc1)c1ccc(O)cc1
12,67 to 68,Cc1oc(-c2ccccc2)nc1COc1ccc(CON=C(CCCCCCCC(=O)O)c2ccccc2)cc1
13,177 to 179,CC(C)NC(=O)c1ccc(-c2ccc3nnn(Cc4ccc5ncccc5c4)c3n2)cc1F
14,102,CCCc1cc(-c2[nH]c3ccccc3c2C)cc(CCC)c1O
15,50 to 56,O=C(Cc1ccc(F)cc1)c1ccc(OC(F)F)cc1
16,201 to 203,COc1ccc2c(=O)cc(-c3nc4ccccc4[nH]3)oc2c1
17,104 to 106,O=C(c1cc(C(F)(F)F)cc(C(F)(F)F)c1)N1CCN(C(=O)CN2CCC(O)(c3ccccc3)CC2)C(c2ccc(Cl)c(Cl)c2)C1 (racemic)

# — a melting point compilation (Tetko et al.; mined from patent text by program, amines drawn as free bases though some values may be those of a salt)
